According to US12582626B2, “Methods and compositions for treating cancer” (The Wistar Institute of Anatomy and Biology, priority 2016, dated 2026):

Assays:
activated CD8+ T cells = test: In vitro stimulation of CD8+ T cells and drug treatments (flow cytometry, intracellular cytokine staining); type: cell-based, mouse
Description: Enriched CD8+ T cells were activated for 4 days in 6-well plates pre-coated with antibodies to CD3 (5 μg/ml) and CD28 (5 μg/mL) (BD Bioscience). For some samples, cells were transferred for the last 16 hours to a hypoxia chamber. To study the impact of hypoxia on relatively resting CD8+ T cells, enriched CD8+ T cells were stimulated for 48 hours under normoxia. Cells were then removed from the plates, washed and replated in fresh medium with 100 U/ml human IL-2 for 96 hours, followed by culture in normoxia or hypoxia with IL-2 for another 36 hours before analysis. Cells were cultured in Roswell Park Memorial Institute (RPMI) medium without Glu (Life Technologies) supplemented with Glu (10 mM) or Gal (10 mM), 10% dialyzed FBS (Life Technologies), 20 mM HEPES, 2 mM Glutamax, 1 mM sodium pyruvate, 0.05 mM 2-mercaptoethanol and 1% penicillin-streptomycin. Hypoxia experiments were performed in a Thermo Napco series 8000WJ CO2 incubator equipped with nitrogen tank for O2 replacement. O2 level was kept at 1% during CD8+ T cells hypoxia culture for time periods indicated in each assay. In all assays cell viability was assessed before staining. […] Drugs and corresponding vehicle controls were added as follows: 2-deoxy-D-glucose (2-DG, 2 mM, Sigma) or Fenofibrate (FF, 50 μM, Sigma) for the entire culture period; Etomoxir (Eto, 200 μM, Sigma) for the last 48 hours. DMSO concentrations were kept below 0.2% for all culture conditions.
CD8^+ T cells from spleens of naive C57Bl/6 mice were purified by negative selection using magnetic beads (MACS, STEMCELL Technologies). Enriched CD8^+ T cells were activated for 4 days in 6-well plates pre-coated with antibodies to CD3 (5 μg/ml) and CD28 (5 μg/mL) (BD Bioscience). For some samples, cells were transferred for the last 16 hours to a hypoxia chamber. To study the impact of hypoxia on resting CD8^+ T cells, purified enriched CD8^+ T cells were stimulated for 48 hours under normoxia. Cells were then washed off the plates and replated in fresh medium with 100 U/ml human IL-2 for 96 hours, followed by culture in normoxia or hypoxia with IL-2 for another 36 hours before analysis. Cells were cultured in Roswell Park Memorial Institute (RPMI) medium without Glu (Life Technologies) supplemented with Glu (10 mM) or Gal (10 mM), 10% dialyzed FBS (Life Technologies), 20 mM HEPES, 2 mM Glutamax, 1 mM sodium pyruvate, 0.05 mM 2-mercaptoethanol and 1% penicillin-streptomycin. Hypoxia experiments were performed in a Thermo Napco series 8000WJ CO2 incubator equipped with nitrogen tank for O2 replacement. O2 level was kept at 1% during CD8^+ T cells hypoxia culture for time periods indicated in each assay. Drugs and corresponding vehicle controls were added as follows: 2-deoxy-D-glucose (2-DG, 2 mM, Sigma) or Fenofibrate (FF, 50 μM, Sigma) for the entire culture period; Etomoxir (Eto, 200 μM, Sigma), Amidepsine A (AmA, 20 μM, Santa Cruz), or Orlistat (OS, 100 μM, Sigma) for the last 48 hours. DMSO concentrations were kept below 0.2% for all culture conditions.
For mitochondrial metabolic markers analysis, cells were stained with Mitosox Red (5 μM, MROS) and DioC6 (40 nM, MMP) (Life Technologies) at 37° C. for 30 minutes under either normoxia or hypoxia (for in vitro samples cultured prior to staining under hypoxia). For fatty acid uptake experiments, cells stimulated under different conditions in vitro or isolated from spleen and tumors of mice bearing 2 weeks or 1 month-old tumors were immediately incubated with 1 μM BODIPY FL C16 (Life tech) for 30 mins at 37° C. Cells were washed twice with cold PBS before surface staining. For Cpt1a staining, cells were stained for surface markers first followed by permeabilization with transcription factor buffer set (BD Pharmingen, San Diego, CA). Cells were stained with anti-Cpt1a antibody or mouse IgG2b isotype control antibody (abcam) at 5 μg/ml in 1× permwash for 45 mins at 4° C. […]

CD8+ T cells = test: Extracellular flux analysis (OCR, ECAR) of stimulated CD8+ T cells; type: cell-based, mouse; conditions: for Basal OCR: OS 100 μM or AmA 20 μM, Glu or Gal media, short-term hypoxia
Description: OCR and ECAR for CD8^+ T cells stimulated under different conditions were measured with XF24 and XF96 Extracellular Flux Analyzers (Seahorse Bioscience) following the manufacturer's instructions. Hypoxia samples were prepared in a hypoxia chamber under 1% O2. Dead cells were removed by dead cell removal kit using MACS and live cells were pre-incubated with 100 μM cobalt chloride before being removed from the hypoxia chamber and entered into the Seahorse analyzer. In experiments to determine the contribution of fatty acid oxidation (FAO) to OCR, 200 μM ETO was added 15 minutes before the Seahorse analysis. Briefly after repeated measures of basal respiration and lactate production, 1 μM OM was added to measure ATP leakage by OCR and glycolytic capacity by ECAR. 1.5 μM FCCP was then added to measure maximal respiration by OCR followed by addition of 100 nM Rotenone and 1 μM Antimycin A (AmA) to determine spare respiratory capacity by OCR and then 100 mM 2-DG to determine glycolytic reserve by ECAR.

[1] = system: vaccine-induced CD8+ T cells; test: FF treatment of vaccinated donor mice, splenic CD8+ T cells analysed before transfer; type: in vivo, mouse; conditions: samples incubated with Eto
Description: For in vivo treatment, fenofibrate (FF; at 100 mg/kg/day, Sigma) was first diluted in dimethylsulfoxide (DMSO) and then further diluted in PBS and given by oral gavage daily for 3 weeks. Control mice received diluent at the same volume. For adoptive transfer experiments, 1×10^7 in vitro activated CD8^+ T cells transduced with lentivectors or splenocytes from vaccinated mice treated with drugs and containing 5×10^4 Trp-1455 tetramer^+CD8^+ T cells per dose were injected intravenously into recipient mice. For FF/control treated splenocytes or wild type/PPAR-α KO splenocytes co-transfer experiments, splenocytes containing 10^5 Trp-1455 tetramer^+CD8^+ T cells from each group were mixed and transferred into CD90.1^+ recipient mice intravenously.
To assess how increased FA catabolism affects CD8+TIL functions, we vaccinated CD90.2+ mice congenic for CD45, and treated them for 3 weeks daily with FF (CD45.1 mice) or diluent (CD45.2 mice). Splenocytes from these mice were mixed at a 1:1 ratio of Trp-1-specific CD8+ T cells from the 2 donors and transferred into CD90.1+ recipient mice, which had been challenged with tumor cells and vaccinated 3 days later. Cells were transferred 2 days after vaccination (FIG. 6A).

## O=CC[C@@H](O)[C@H](O)[C@H](O)CO [2-DG, 2-deoxy-D-glucose]
Activated CD8+ T cells; 2-DG compared to cells grown with Glu
  PD-1 expression: more
CD8+ T cells; Glu medium with 2-DG 2 mM
  O2 consumption rate (OCR): decreases
  OCR/ECAR ratio: augments
  extracellular acidification rate (ECAR): declines

## COc1cc(C)c(C(=O)Oc2cc(C)c(C(=O)Oc3cc(C)c(C(=O)NC(C)C(=O)O)c(O)c3)c(O)c2)c(OC)c1 (stereo not shown) [AmA, Amidepsine A]
Activated CD8+ T cells; Gal media and hypoxia
  functions of T cells: decrease functions
Activated CD8+ T cells; under hypoxia, AmA, Gal medium
  PD-1 expression: decreases
CD8+ T cells
  Basal OCR: decreases

## CCOC(=O)[C@@]1(CCCCCCOc2ccc(Cl)cc2)CO1 [Eto, etomoxir]
Activated CD8+ T cells; cultured with limited access to Glu and O2
  functions and polyfunctionality of CD8+ T cells: decreases
Activated CD8+ T cells; under hypoxia, FF 50 μM or Eto 200 μM
  PD-1 expression: decreases
CD8+ T cells; Eto 200 μM, CD8+ T cells stimulated in Glu or Gal media
  OCR: decreases
[1]
  FF-enhanced OCR of splenocytes: blocked

## CCCCCCCCCCC[C@@H](C[C@@H]1OC(=O)[C@H]1CCCCCC)OC(=O)[C@H](CC(C)C)NC=O [OS, Orlistat]
Activated CD8+ T cells; under hypoxia, OS, regardless of other culture conditions
  PD-1 expression: decreases
CD8+ T cells
  Basal OCR: decreases
